According to US10202353B2, “Therapeutic compounds” (Gilead Sciences, Inc., priority 2014, dated 2019):

Tests used:
[1] = Test B: Cytotoxicity Assay; type: cell-based; conditions: human, uninfected MT4 cells, same protocol as Test A
Procedure: (§1) For the antiviral assay, 40 μL of a concentration required to achieve a final effective 1× test concentration of 3-fold serially diluted compound in culture medium with 10% FBS was added to each well of a 384-well plate (10 concentrations) in quadruplicate. MT4 cells were next mixed with HIV-IIIb at an m.o.i of 0.003 for 1 hour, after which time 35 μL of virus/cell mixture (2000 cells) was immediately added to each well containing 40 μL of diluted compound. The plates were then incubated at 37° C. for 5 days. After 5 days of incubation, 25 μl of 2× concentrated CellTiter-Glo™ Reagent (catalog # G7571, Promega Biosciences, Inc., Madison, Wis.) was added to each well containing MT-4 cells. Cell lysis was carried out by incubating at room temperature for 10 min and then chemiluminescence was read. EC50 values were calculated as the compound concentration that caused a 50% decrease in luminescence signal, a measure of HIV-1 replication. Percent inhibition of virus-induced cell killing calculated from the dose response curve at 2 μM drug concentration is shown in the table below. Compound cytotoxicity and the corresponding CC50 values was determined using the same protocol as described in the antiviral assay (Test A) except that uninfected cells were used.

HIV-IIIb = assay: Test A: Antiviral assay in MT4 Cells; type: cell-based, HIV-1; conditions: Human immunodeficiency virus 1, 120 h; 2 μM drug concentration; MT4 cells infected with HIV-IIIb, 5 days; calculated from dose response curve; values normalized to 100% where greater than 100; read-out: % Inhibition at 2 μM (percent inhibition of virus-induced cell killing)
Procedure: as §1, with “below.” for “below. Compound cytotoxicity and the corresponding CC50 values was determined using the same protocol as described in the antiviral assay (Test A) except that uninfected cells were used.”

Row | Compound | CC50 at 5 days [1] | inhibition at 2 µM (HIV-IIIb)
1 | CN(C(=O)[C@H](Cc1cccc(Cl)c1)NC(=O)Cn1nc(C(F)(F)F)c2c1CCCC2)c1ccccc1 [Compound 16, (S)-3-(3-chlorophenyl)-N-methyl-N-phenyl-2-(2-(3-(trifluoromethyl)-4,5,6,7-tetrahydro-1H-indazol-1-yl)acetamido)propanamide] | 16.7 µM | 58%
2 | CN(C(=O)[C@H](Cc1ccccc1)NC(=O)Cn1nc(C(F)(F)F)c2c1CCCC2)c1ccc2ccccc2c1 [Compound 3, (S)—N-methyl-N-(naphthalen-2-yl)-3-phenyl-2-(2-(3-(trifluoromethyl)-4,5,6,7-tetrahydro-1H-indazol-1-yl)acetamido)propanamide] | 11.1 µM | 79%
3 | CN(C(=O)[C@H](Cc1cccc(C(N)=O)c1)NC(=O)Cn1nc(C(F)(F)F)c2c1CCCC2)c1ccccc1 [Compound 18, (S)-3-(3-(methyl(phenyl)amino)-3-oxo-2-(2-(3-(trifluoromethyl)-4,5,6,7-tetrahydro-1H-indazol-1-yl)acetamido)propyl)benzamide] | > 53 µM | 0%
4 | CN(C(=O)[C@H](Cc1ccccc1)NC(=O)Cn1nc(C(F)(F)F)c2c1CCCCC2)c1ccccc1 [Compound 13] | 22.2 µM | 87%
5 | CN(C)c1ccc(N(C)C(=O)[C@H](Cc2ccccc2)NC(=O)Cn2nc(C(F)(F)F)c3c2CCCC3)cc1 [Compound 23, (S)—N-(4-(dimethylamino)phenyl)-N-methyl-3-phenyl-2-(2(3-(trifluoromethyl)-4,5,6,7-tetrahydro-1H-indazol-1-yl)acetamido)propanamide] | 19.2 µM | 100%
6 | COc1ccc(N(C)C(=O)[C@H](Cc2ccccc2)NC(=O)Cn2nc(C(F)(F)F)c3c2CCCC3)cc1 [Compound 2] | 18.4 µM | 100%
7 | CN(C(=O)[C@H](Cc1cccc([N+](=O)[O-])c1)NC(=O)Cn1nc(C(F)(F)F)c2c1CCCC2)c1ccccc1 [Compound 17, (S)—N-methyl-3-(3-nitrophenyl)-N-phenyl-2-(2-(3-(trifluoromethyl)-4,5,6,7-tetrahydro-1H-indazol-1-yl)acetamido)propanamide] | 19.2 µM | 0%
8 | COc1ccc(N(C)C(=O)[C@H](Cc2cc(F)cc(F)c2)NC(=O)Cn2nc(C(F)(F)F)c3c2CCCC3)cc1 [Compound 4, (S)-3-(3,5-difluorophenyl)-N-(4-methoxyphenyl)-N-methyl-2-(2-(3-(trifluoromethyl)-4,5,6,7-tetrahydro-1H-indazol-1-yl)acetamido)propanamide] | 12.5 µM | 100%
9 | CN(C(=O)[C@H](Cc1csc2ccccc12)NC(=O)Cn1nc(C(F)(F)F)c2c1CCCC2)c1ccccc1 [Compound 10, (S)-3-(benzo[b]thiophen-3-yl)-N-methyl-N-phenyl-2-(2-(3-(trifluoromethyl)-4,5,6,7-tetrahydro-1H-indazol-1-yl)acetamido)propanamide] | 10.5 µM | 2%
10 | CN(C(=O)[C@H](Cc1cc(F)cc(F)c1)NC(=O)Cn1nc(C(F)(F)F)c2c1C(F)(F)C1CC21)c1ccc2c(c1)CNC2=O (stereo partly drawn) [Compound 34, (2S)-2-(2-(5,5-difluoro-3-(trifluoromethyl)-3b,4,4a,5-tetrahydro-1H-cyclopropa[3,4]cyclopenta[1,2-c]pyrazol-1-yl)acetamido)-3-(3,5-difluorophenyl)-N-methyl-N-(1-oxoisoindolin-5-yl)propanamide] | > 53 µM | 97%
11 | CN(C(=O)[C@H](Cc1ccccc1)NC(=O)Cn1nc(C(F)(F)F)c2c1CCCC2)c1ccccc1 [Compound 1, (S)—N-methyl-N,3-diphenyl-2-(2-(3-(trifluoromethyl)-4,5,6,7-tetrahydro-1H-indazol-1-yl)acetamido)propanamide] | 23.5 µM | 98%
12 | CN(C(=O)[C@H](Cn1cccn1)NC(=O)Cn1nc(C(F)(F)F)c2c1CCCC2)c1ccccc1 [Compound 12, (S)—N-methyl-N-phenyl-3-(1H-pyrazol-1-yl)-2-(2-(3-(trifluoromethyl)-4,5,6,7-tetrahydro-1H-indazol-1-yl)acetamido)propanamide] | > 53 µM | 10%
13 | CN(C(=O)[C@H](Cc1cncn1C)NC(=O)Cn1nc(C(F)(F)F)c2c1CCCC2)c1ccccc1 [Compound 9] | > 53 µM | 5%
14 | CN(C(=O)[C@H](Cc1ccsc1)NC(=O)Cn1nc(C(F)(F)F)c2c1CCCC2)c1ccccc1 [Compound 22, (S)—N-methyl-N-phenyl-3-(thiophen-3-yl)-2-(2-(3-(trifluoromethyl)-4,5,6,7-tetrahydro-1H-indazol-1-yl)acetamido)propanamide] | 25 µM | 94%
15 | CN(C(=O)[C@H](Cc1cc(F)cc(F)c1)NC(=O)Cn1[nH]c(=O)c2c1CCCC2)c1ccc(Cl)cc1 [Compound 30] | 22.2 µM | 100%
16 | CN(C(=O)[C@H](CC1CCC1)NC(=O)Cn1nc(C(F)(F)F)c2c1CCCC2)c1ccccc1 [Compound 14] | 29 µM | 16%
17 | COc1ccc(N(C)C(=O)[C@H](Cc2cc(F)cc(F)c2)NC(=O)Cn2ncc3c2CCCC3)cc1 [Compound 31, (S)-3-(3,5-difluorophenyl)-N-(4-methoxyphenyl)-N-methyl-2-(2-(4,5,6,7-tetrahydro-1H-indazol-1-yl)acetamido)propanamide] | > 53 µM | 78%
18 | CN(C(=O)[C@H](Cc1cc(F)cc(F)c1)NC(=O)Cc1cc(F)cc2c1OCOC2)c1ccc(Cl)cc1 [Compound 33, (S)—N-(4-chlorophenyl)-3-(3,5-difluorophenyl)-2-(2-(6-fluoro-4H-benzo[d][1,3]dioxin-8-yl)acetamido)-N-methylpropanamide] | 18.4 µM | 34%
19 | CN(C(=O)[C@H](Cc1cccnc1)NC(=O)Cn1nc(C(F)(F)F)c2c1CCCC2)c1ccccc1 [Compound 6] | > 53 µM | 52%
20 | COc1ccc(N(C)C(=O)[C@H](Cc2cc(F)cc(F)c2)NC(=O)Cn2nc(C(F)(F)F)c3c2CCC2(C3)OCCO2)cc1 [Compound 27] | 19.9 µM | 32%
21 | CN(C(=O)[C@H](Cc1cccc(C(F)(F)F)c1)NC(=O)Cn1nc(C(F)(F)F)c2c1CCCC2)c1ccccc1 [Compound 21, (S)—N-methyl-N-phenyl-2-(2-(3-(trifluoromethyl)-4,5,6,7-tetrahydro-1H-indazol-1-yl)acetamido)-3-(3-(trifluoromethyl)phenyl)propanamide] | 11.3 µM | 0%
22 | CN(C(=O)[C@H](Cc1cc(F)cc(F)c1)NC(=O)Cn1nc(C(F)(F)F)c2c1CCCC2)c1ccc(F)cc1 [Compound 24, (S)-3-(3,5-difluorophenyl)-N-(4-fluorophenyl)-N-methyl-2-(2-(3-(trifluoromethyl)-4,5,6,7-tetrahydro-1H-indazol-1-yl)acetamido)propanamide] | 12.2 µM | 93%
23 | CN(C(=O)[C@H](CC1CCOCC1)NC(=O)Cn1nc(C(F)(F)F)c2c1CCCC2)c1ccccc1 [Compound 20, (S)—N-methyl-N-phenyl-3-(tetrahydro-2H-pyran-4-yl)-2-(2-(3-(trifluoromethyl)-4,5,6,7-tetrahydro-1H-indazol-1-yl)acetamido)propanamdide] | > 53 µM | 0%
